Assay results taken from article PMC4391872, “Direct Binding of Ledipasvir to HCV NS5A: Mechanism of Resistance to an HCV Antiviral Agent” (PLoS ONE, 2015).
Like-named read-outs stand apart in the source and are kept apart here.

Columns and labels:
[1] = target: T1, NS5A-6HIS (full length NS5A, genotype 1b, Con1) (Hepatitis C virus (isolate Con1), UniProt Q9WMX2); assay: competition of 3H-LDV binding, Ni-NTA capture
T1 construct: mature NS5A cut from HCV genome polyprotein; full length residues 1-447 with N-terminal amphipathic helix, C-terminal 6His tag kept; Sf9 baculovirus, C12E8 solubilised, phosphorylated
T1 sequence (Q9WMX2 1973-2419): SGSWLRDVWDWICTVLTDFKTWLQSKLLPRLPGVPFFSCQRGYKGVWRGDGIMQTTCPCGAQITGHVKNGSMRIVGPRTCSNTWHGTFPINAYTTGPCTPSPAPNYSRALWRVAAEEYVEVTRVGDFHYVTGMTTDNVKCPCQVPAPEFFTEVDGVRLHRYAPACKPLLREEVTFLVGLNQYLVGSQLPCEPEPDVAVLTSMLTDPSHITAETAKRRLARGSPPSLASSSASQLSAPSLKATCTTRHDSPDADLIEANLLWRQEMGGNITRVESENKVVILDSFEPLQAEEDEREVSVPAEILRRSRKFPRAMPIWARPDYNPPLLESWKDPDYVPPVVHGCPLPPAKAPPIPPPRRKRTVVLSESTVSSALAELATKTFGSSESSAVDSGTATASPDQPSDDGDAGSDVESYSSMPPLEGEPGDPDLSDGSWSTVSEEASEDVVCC

[2] = target: T1, NS5A-6HIS (full length NS5A, genotype 1b, Con1); assay: competition of 3H-LDV binding, Ni-NTA capture; remark: listed apart in the source
Method: competition of 3H-LDV binding, Ni-NTA capture on NS5A-6HIS (full length NS5A, genotype 1b, Con1) | Ki was calculated using the Cheng-Prusoff equation

[3] = target: T1, NS5A-6HIS (full length NS5A, genotype 1b, Con1); assay: radioligand saturation binding, Ni-NTA capture
[4] = target: NS5A-Y93H-6HIS (Y93H mutant of full length NS5A, genotype 1b, Con1, with C-terminal His tag) (Hepatitis C virus genotype 1b, Con1); assay: AUC; sedimentation velocity (42,000 rpm, 3.3 and 6.6 uM) and equilibrium, 20 C, protein in C12E8 micelles, 25 mM Tris pH 7.5, 150 mM NaCl, 0.5 mM TCEP, 0.02% C12E8, 21.1% D2O (density matched to the detergent); self-association

Row | Compound | IC50 ([1]; read-out: IC50) [nM] | Ki [2] [nM] | further results
1 | O=C1N[C@H]2[C@H](CS[C@H]2CCCCC(=O)N2CCC[C@H]2C(=O)Nc2ccc(/C=C/c3ccc(NC(=O)[C@@H]4CCCN4C(=O)Cc4ccccc4)cc3)cc2)N1 [BMS-Biotin] | – | – | IC50 ([1]; read-out: no competition up to 100 μM): > 100000 nM
2 | COC(=O)N[C@H](C(=O)N1CCC[C@H]1c1nc(-c2ccc(-c3ccc(-c4c[nH]c([C@@H]5CCCN5C(=O)[C@@H](NC(=O)OC)C(C)C)n4)cc3)cc2)c[nH]1)C(C)C [daclatasvir] | 753 | 499 ± 68.3 | –
3 | COC(=O)N[C@H](C(=O)N1CC2(CC2)C[C@H]1c1ncc(-c2ccc3c(c2)C(F)(F)c2cc(-c4ccc5nc([C@@H]6[C@H]7CC[C@H](C7)N6C(=O)[C@@H](NC(=O)OC)C(C)C)[nH]c5c4)ccc2-3)[nH]1)C(C)C [ledipasvir] | 149 | 98.7 ± 10.2 | Kd [3]: 58.9 ± 6.6 nM
4 | NS5A-Y93H-6HIS (Y93H mutant of full length NS5A, genotype 1b, Con1, with C-terminal His tag) (natural protein) | – | – | percent dimers [4]: 3%; percent higher order oligomers [4]: 7%
